Reference: PubChem BioAssay (NCI)
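How tested: cells in 96-well plates exposed to compound for 48 hours at five concentrations. TGI: concentration producing complete growth inhibition.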

Experiments:
Assay in all cases: inhibition of tumour cell growth, NCI panel, 48 h
[1] = tested on: MCF7 breast
[2] = tested on: HS 578T breast
[3] = tested on: HCC-2998 colon
[4] = tested on: SK-MEL-28 melanoma
[5] = tested on: K-562 leukemia
[6] = tested on: SF-268 CNS
[7] = tested on: BT-549 breast
[8] = tested on: A498 renal
[9] = tested on: DU-145 prostate
[10] = tested on: TK-10 renal
[11] = tested on: UACC-62 melanoma
[12] = tested on: CCRF-CEM leukemia
[13] = tested on: OVCAR-3 ovarian
[14] = tested on: SNB-75 CNS
[15] = tested on: T-47D breast
[16] = tested on: EKVX NSCLC
[17] = tested on: SF-539 CNS
[18] = tested on: OVCAR-8 ovarian
[19] = tested on: OVCAR-5 ovarian
[20] = tested on: SNB-19 CNS
[21] = tested on: HT29 colon
[22] = tested on: SN12C renal
[23] = tested on: ACHN renal
[24] = tested on: COLO 205 colon
[25] = tested on: M14 melanoma
[26] = tested on: SK-MEL-2 melanoma
[27] = tested on: NCI-H23 lung
[28] = tested on: U251 CNS
[29] = tested on: CAKI-1 renal
[30] = tested on: PC-3 prostate
[31] = tested on: SW-620 colon
[32] = tested on: IGROV1 ovarian
[33] = tested on: HOP-62 NSCLC
[34] = tested on: KM12 colon
[35] = tested on: RPMI-8226 leukemia
[36] = tested on: HCT-116 colon
[37] = tested on: UACC-257 melanoma
[38] = tested on: 786-0 renal
[39] = tested on: NCI/ADR-RES ovarian
[40] = tested on: HL-60(TB) leukemia
[41] = tested on: A549 NSCLC
[42] = tested on: MALME-3M melanoma
[43] = tested on: MDA-MB-435
[44] = tested on: SK-MEL-5 melanoma
[45] = tested on: MDA-N
[46] = tested on: MOLT-4 leukemia
[47] = tested on: SF-295 CNS
[48] = tested on: LOX IMVI melanoma
[49] = tested on: NCI-H522 lung
[50] = tested on: MDA-MB-231 breast
[51] = tested on: HOP-92 NSCLC
[52] = tested on: NCI-H460 lung
[53] = tested on: RXF 393 renal
[54] = tested on: SK-OV-3 ovarian
[55] = tested on: OVCAR-4 ovarian
[56] = tested on: HCT-15 colon
[57] = tested on: NCI-H226 lung
[58] = tested on: SR leukemia
[59] = tested on: UO-31 renal

Q: How did the TGI [1] turn out when `OC(C1CCCC1=N/N=C1/CCCC1C(O)(C(F)(F)Cl)C(F)(F)Cl)(C(F)(F)Cl)C(F)(F)Cl` (stereo not drawn) was run?
A: The TGI was greater than 10 µM.

Q: And the TGI [2]?
A: The TGI was greater than 10 µM.

Q: What about the TGI [3] of the same molecule?
A: Its TGI is greater than 10 µM.

Q: What about the TGI [4] of the same molecule?
A: Its TGI is greater than 10 µM.

Q: And the TGI [5]?
A: Its TGI is greater than 10 µM.

Q: And the TGI [6]?
A: The TGI was greater than 10 µM.

Q: What about the TGI [7] of the same molecule?
A: Its TGI is greater than 10 µM.

Q: And the TGI [8]?
A: The TGI was greater than 10 µM.

Q: And the TGI [9]?
A: Its TGI is greater than 10 µM.

Q: What about the TGI [10] of the same molecule?
A: Its TGI is greater than 10 µM.

Q: And the TGI [11]?
A: The TGI was greater than 10 µM.

Q: And the TGI [12]?
A: The TGI was greater than 10 µM.

Q: And the TGI [13]?
A: The TGI was greater than 10 µM.

Q: And the TGI [14]?
A: Its TGI is greater than 10 µM.

Q: What about the TGI [15] of the same molecule?
A: The TGI was greater than 10 µM.

Q: And the TGI [16]?
A: Its TGI is greater than 10 µM.

Q: And the TGI [17]?
A: The TGI was greater than 10 µM.

Q: What about the TGI [18] of the same molecule?
A: Its TGI is greater than 10 µM.

Q: What about the TGI [19] of the same molecule?
A: Its TGI is greater than 10 µM.

Q: And the TGI [20]?
A: Its TGI is greater than 10 µM.

Q: What about the TGI [21] of the same molecule?
A: The TGI was greater than 10 µM.

Q: What about the TGI [22] of the same molecule?
A: The TGI was greater than 10 µM.

Q: And the TGI [23]?
A: The TGI was greater than 10 µM.

Q: What about the TGI [24] of the same molecule?
A: The TGI was greater than 10 µM.

Q: What about the TGI [25] of the same molecule?
A: Its TGI is greater than 10 µM.

Q: And the TGI [26]?
A: Its TGI is greater than 10 µM.

Q: And the TGI [27]?
A: The TGI was greater than 10 µM.

Q: What about the TGI [28] of the same molecule?
A: Its TGI is greater than 10 µM.

Q: And the TGI [29]?
A: The TGI was greater than 10 µM.

Q: What about the TGI [30] of the same molecule?
A: The TGI was greater than 10 µM.

Q: And the TGI [31]?
A: The TGI was greater than 10 µM.

Q: What about the TGI [32] of the same molecule?
A: Its TGI is greater than 10 µM.

Q: What about the TGI [33] of the same molecule?
A: The TGI was greater than 10 µM.

Q: And the TGI [34]?
A: Its TGI is greater than 10 µM.

Q: What about the TGI [35] of the same molecule?
A: Its TGI is greater than 10 µM.

Q: And the TGI [36]?
A: The TGI was greater than 10 µM.

Q: What about the TGI [37] of the same molecule?
A: Its TGI is greater than 10 µM.

Q: What about the TGI [38] of the same molecule?
A: The TGI was greater than 10 µM.

Q: And the TGI [39]?
A: Its TGI is greater than 10 µM.

Q: And the TGI [40]?
A: The TGI was greater than 10 µM.

Q: What about the TGI [41] of the same molecule?
A: Its TGI is greater than 10 µM.

Q: And the TGI [42]?
A: The TGI was greater than 10 µM.

Q: And the TGI [43]?
A: Its TGI is greater than 10 µM.

Q: And the TGI [44]?
A: The TGI was greater than 10 µM.

Q: What about the TGI [45] of the same molecule?
A: The TGI was greater than 10 µM.

Q: What about the TGI [46] of the same molecule?
A: Its TGI is greater than 10 µM.

Q: What about the TGI [47] of the same molecule?
A: Its TGI is greater than 10 µM.

Q: And the TGI [48]?
A: The TGI was greater than 10 µM.

Q: And the TGI [49]?
A: The TGI was greater than 10 µM.

Q: And the TGI [50]?
A: The TGI was greater than 10 µM.

Q: And the TGI [51]?
A: Its TGI is greater than 10 µM.

Q: And the TGI [52]?
A: The TGI was greater than 10 µM.

Q: What about the TGI [53] of the same molecule?
A: The TGI was greater than 10 µM.

Q: What about the TGI [54] of the same molecule?
A: The TGI was greater than 10 µM.

Q: And the TGI [55]?
A: Its TGI is greater than 10 µM.

Q: And the TGI [56]?
A: The TGI was greater than 10 µM.

Q: What about the TGI [57] of the same molecule?
A: Its TGI is greater than 10 µM.

Q: `COc1ccc2c(c1)-c1c(c3ccccc3n1CCN1CCOCC1)CC2` was tested. Which TGI [1] did it give?
A: Its TGI is greater than 100 µM.

Q: What about the TGI [2] of the same molecule?
A: The TGI was 32.3 µM.

Q: And the TGI [3]?
A: The TGI was 34.3 µM.

Q: And the TGI [4]?
A: Its TGI is greater than 100 µM.

Q: And the TGI [5]?
A: The TGI was 54.5 µM.

Q: And the TGI [6]?
A: Its TGI is 76.9 µM.

Q: And the TGI [7]?
A: The TGI was 63.5 µM.

Q: What about the TGI [9] of the same molecule?
A: Its TGI is greater than 100 µM.

Q: And the TGI [10]?
A: The TGI was 1.78 µM.

Q: What about the TGI [11] of the same molecule?
A: Its TGI is 49.4 µM.

Q: And the TGI [12]?
A: Its TGI is 85.8 µM.

Q: And the TGI [13]?
A: The TGI was 56.6 µM.

Q: And the TGI [14]?
A: The TGI was 49 µM.

Q: What about the TGI [15] of the same molecule?
A: The TGI was greater than 100 µM.

Q: What about the TGI [16] of the same molecule?
A: The TGI was 63.8 µM.

Q: What about the TGI [17] of the same molecule?
A: The TGI was 52.4 µM.

Q: What about the TGI [18] of the same molecule?
A: The TGI was 53.2 µM.

Q: And the TGI [19]?
A: Its TGI is greater than 100 µM.

Q: And the TGI [20]?
A: The TGI was 71.5 µM.

Q: What about the TGI [21] of the same molecule?
A: Its TGI is 25.9 µM.

Q: And the TGI [22]?
A: Its TGI is greater than 100 µM.

Q: And the TGI [23]?
A: The TGI was greater than 100 µM.

Q: What about the TGI [24] of the same molecule?
A: The TGI was 32.5 µM.

Q: And the TGI [25]?
A: Its TGI is greater than 100 µM.

Q: What about the TGI [26] of the same molecule?
A: Its TGI is 28.9 µM.

Q: What about the TGI [27] of the same molecule?
A: Its TGI is 65.6 µM.

Q: What about the TGI [28] of the same molecule?
A: Its TGI is 81.8 µM.

Q: And the TGI [29]?
A: The TGI was 81.9 µM.

Q: What about the TGI [30] of the same molecule?
A: The TGI was 45.3 µM.

Q: What about the TGI [31] of the same molecule?
A: Its TGI is greater than 100 µM.

Q: What about the TGI [32] of the same molecule?
A: Its TGI is 38.5 µM.

Q: What about the TGI [33] of the same molecule?
A: The TGI was 74.8 µM.

Q: What about the TGI [34] of the same molecule?
A: The TGI was 26.7 µM.

Q: What about the TGI [35] of the same molecule?
A: Its TGI is 97 µM.

Q: And the TGI [36]?
A: The TGI was 76.8 µM.

Q: And the TGI [37]?
A: The TGI was greater than 100 µM.

Q: What about the TGI [38] of the same molecule?
A: The TGI was 54.1 µM.

Q: And the TGI [39]?
A: Its TGI is 46 µM.

Q: And the TGI [41]?
A: The TGI was greater than 100 µM.

Q: And the TGI [58]?
A: Its TGI is 53.3 µM.

Q: And the TGI [42]?
A: The TGI was 46.2 µM.

Q: And the TGI [43]?
A: Its TGI is greater than 100 µM.

Q: What about the TGI [44] of the same molecule?
A: The TGI was 31.3 µM.

Q: What about the TGI [45] of the same molecule?
A: The TGI was greater than 100 µM.

Q: And the TGI [46]?
A: Its TGI is 37.9 µM.

Q: And the TGI [47]?
A: The TGI was 35.5 µM.

Q: And the TGI [48]?
A: The TGI was 34.5 µM.

Q: What about the TGI [49] of the same molecule?
A: The TGI was 37.3 µM.

Q: What about the TGI [50] of the same molecule?
A: Its TGI is 90.9 µM.

Q: What about the TGI [51] of the same molecule?
A: Its TGI is greater than 100 µM.

Q: What about the TGI [52] of the same molecule?
A: Its TGI is 34.2 µM.

Q: And the TGI [59]?
A: Its TGI is 96.8 µM.

Q: And the TGI [54]?
A: Its TGI is greater than 100 µM.

Q: And the TGI [55]?
A: The TGI was greater than 100 µM.

Q: What about the TGI [56] of the same molecule?
A: Its TGI is greater than 100 µM.

Q: What about the TGI [57] of the same molecule?
A: Its TGI is 26.3 µM.
